The assay deals with T1, KDM4A-F185A (Homo sapiens, UniProt O75164, F185A).
T1 construct: human KDM4A-jmjC domain (catalytic domain of KDM4A); 6xHis (N); host or cells: E. coli BL21 (DE3)
T1 sequence (O75164 142-308 F185A limits assumed): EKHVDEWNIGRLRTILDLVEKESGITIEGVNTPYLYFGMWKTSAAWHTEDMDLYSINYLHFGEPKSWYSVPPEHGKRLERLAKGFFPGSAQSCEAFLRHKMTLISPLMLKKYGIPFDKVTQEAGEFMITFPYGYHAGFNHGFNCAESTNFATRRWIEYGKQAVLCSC
Briefly: MALDI-MS end-point demethylase assay on H3K9me3 peptide. Format: biochemical. The conditions noted are these: H3K9me3 peptide, 200 µM 2OG, fixed concentration of NOG analogue. From the text:
To develop an appropriate inhibitor, we selected N-oxalyl glycine (NOG, 2) scaffold because of its structural similarity with 2OG and the ability to inhibit 2OG-utilizing enzymes including KDMs (Figure 1C).[29]−[31] Substituting −CH2– at C3 of 2OG with −NH– in NOG prevents its oxidative decarboxylation by KDMs, making the inhibitor cofactor-competitive. […] We synthesized a panel of eight NOG analogues (3–10), derived from L-amino acids, carrying varied steric substituents at C4, with the reasoning that a bulky substituent at C4 would selectively fit into the expanded pocket of F185A over wild type KDM4A (Figures 2B and S1–S6, Schemes S1 and S2). The inhibitory effect of each compound was determined based on the extent of enzyme-catalyzed demethylation of a canonical peptide substrate corresponding to the N-terminus of histone 3 carrying trimethylated lysine at position 9 (H3K9me3). […] Such orthogonal inhibition of the engineered demethylase constitutes a powerful chemical probe to study the functions of a specific member of an enzyme family without issues of off-target activity. […]
assay (Biorad) kit with BSA concentrations as a standard. […]
8. Demethylase activity of the wild type and mutant KDM4 proteins on peptide substrate To monitor enzymatic activity, a demethylase activity assay was optimized and then observed through MALDI-TOF.7 Each histone demethylase assay sample included either wild type or mutant enzyme (10µM KDM4A, 7.5µM KDM4C, 10µM KDM4D, or 1µM KDM4E), 10 µM peptide, 200 µM 2OG, 50 mM Tris pH 8, […], 0-200µM NOG analogue, and 2 mM L-ascorbic acid with a total assay volume of 10 µL. Fe(II) supplement and L-ascorbic acid […]
Lastly, the 2OG and peptide were […]
positive mode and analyzed on Bruker FlexAnalysis software. The percent demethylated peptide […]
the multiple demethylation events on the peptide. […]
varying concentrations (0-10 µM). […] The fluorescence intensity was measured with excitation = 340 nm and emission = 490 nm on a TECAN Infinite M1000Pro. […]
The set up and analysis for IC50 of L-Leu NOG against KDM4A F185A enzyme was similar to that described in the coupled fluorescence assay section, but adjusted to function as an end point assay. […]
and varying concentration of compounds (NOGs 6, 9 and 10) and a substrate cocktail (200 µM 2OG and 60 µM H3K9me3 peptide). Different concentrations of NOG 6 were measured at one time point ranging for 1-5 hours. For 9 and 10, the same set-up remained, but enzymatic activity was measured via MALDI-TOF analysis, and relative activity and inhibition was calculated for different NOG concentrations as described above. […]
and analyzed on Bruker FlexAnalysis software. The percent demethylated peptide was calculated by first multiplying the K27me1 peak by 2 and the K27me0 peak by 3 to account for the multiple

On to `CC(C)CC(NC(=O)C(=O)O)C(=O)O` (stereo not shown) [compound 6, N-oxalyl leucine], for which the “inhibition of F185A mutant demethylase activity (MALDI-MS)” value was “complete inhibition”.

Source of the values: PMC11783601, “Analogue-Sensitive Inhibition of Histone Demethylases Uncovers Member-Specific Function in Ribosomal Protein Synthesis” (Journal of the American Chemical Society, 2025).
